“And” between values parts separate entries of the source, which are not always exact repeats. Identical values can stand only once.
Experiments:
[1] = test system: A549 (Lung); assay: Sulforhodamine B cytotoxicity assay; type: cell-based; details: Homo sapiens, A549, 48 h, read-out: Human cancer cell lines IC50 A549 (Lung)
Experimental: (§1) The benzyl compounds were evaluated by Sulforhodamine B Assay as per reported method [Skehan etal., J. Natl. Cancer Inst.1990, 82, 1107]. The human cancer cell lines procured from National Cancer Institute, Frederick, U. S. A. were used in present study. Cells were grown in tissue culture flasks in complete growth medium (RPMI-1640 medium with 2 mM glutamine, pH 7.4 supplemented with 10% fetal bovine serum, 100 µg/ml streptomycin and 100 units/ml penicillin) in a carbon dioxide incubator (37°C, 5% CO2, 90% RH). The cells at subconfluent stage were harvested from the flask by treatment with trypsin (0.05% in PBS (pH 7.4) containing 0.02% EDTA). Cells with viability of more than 98%, as determined by trypan blue exclusion, were used for determination of cytotoxicity. The cell suspension required concentration of cells was prepared in complete growth medium. Stock solution of 2x10^-2 M of compounds were prepared in DMSO and further dilution was carried out complete growth medium containing 50µg/ml of gentamycin to obtained working test solution of required concentration. In vitro cytotoxicity against various human cancer cell lines was determined using 96-well cell culture plates. The 100µl of cell suspension was added to each well of the 96-well cell culture plates. The cells were allowed to grow in CO2 incubator (37°C, 5% CO2, 90% RH) for 24 hours. The test materials in complete growth medium (100 µl) were added after 24 hours incubation to the wells containing cell suspension. The plates were further incubated for 48 hours (37°C in an atmosphere of 5% CO2 and 90% relative humidity) in a carbon dioxide incubator after addition of test material and then the cell growth was stopped by gently layering trichloroacetic acid (50% TCA, 50 µl) on top of the medium in all the wells. The plates were incubated at 4°C for one hour to fix the cells attached to the bottom of the wells. The liquid of all the wells was gently pipetted out and discarded. The plates were washed five times with distilled water to remove TCA, growth medium low molecular weight metabolites, serum proteins etc. and air - dried. Cell growth was measured by staining with sulforhodamine B dye. The adsorbed dye was dissolved in Tris-HCl Buffer (100 µl/well, 0.01M, pH 10.4) and plates were gently stirred for 10 minutes on a mechanical stirrer. The optical density (OD) was recorded on ELISA reader at 540nm. Paclitaxel (Taxol), and 5-Fluorouracil were used as positive controls (Standard drugs).

[2] = test system: HCT-116 (Colon); assay: Sulforhodamine B cytotoxicity assay; type: cell-based; details: Homo sapiens, HCT-116, 48 h, read-out: Human cancer cell lines IC50 HCT-116 (Colon)
Experimental: as §1

[3] = test system: MCF-7 (Breast cancer); assay: Sulforhodamine B cytotoxicity assay; type: cell-based; details: Homo sapiens, MCF7, 48 h, read-out: Human cancer cell lines IC50 MCF-7 (Breast cancer)
Experimental: as §1

[4] = test system: T-47D (Breast cancer); assay: Sulforhodamine B cytotoxicity assay; type: cell-based; details: Homo sapiens, T47D, 48 h, read-out: Human cancer cell lines IC50 T-47D (Breast cancer)
Experimental: as §1

[5] = test system: THP-1 (Leukemia); assay: Sulforhodamine B cytotoxicity assay; type: cell-based; details: Homo sapiens, THP-1, 48 h, read-out: Human cancer cell lines IC50 THP-1 (Leukemia)
Experimental: as §1

[6] = test system: tubulin protein; type: biochemical; details: tubulin 3mg/mL, 37° C, 340 nm, 1h; read-out: Tubulin polymerisation inhibition IC50
Experimental: The tubulin polymerization experiment was performed using 'assay kit'(Cytoskeleton USA) following manufacturer's protocol based on the procedure described by of Shelanski et al, (1973) and Lee et al. (1977). Briefly, tubulin protein (3mg/mL) in tubulin polymerization buffer (80 mM PIPES, pH 6.9, 2 mM MgCl2, 0.5 mM EGTA, 1 mM GTP and 15% glycerol) was placed in prewarmed 96-well microtiter plates at 37° C in the presence of test compounds with variable concentrations. All samples were mixed well and polymerization was monitored kinetically at 340 nm every min for 1h using a Spectramax plate reader. The IC50 value was determined from dose-dependent analysis and is defined as the concentration that inhibits the rate of polymerization by 50%. Podophyllotoxin was used as standard tubulin polymerisation inhibitor as positive control.

[7] = test system: Ehrlich Tumor (solid); type: in vivo, Swiss mice
Experimental: Ehrlich ascites carcinoma (EAC) cells were collected from the peritoneal cavity of the Swiss mice harbouring 8-10 days old ascitic tumor. 1x10^7 EAC cells were injected intramuscularly in right thigh of Swiss male mice selected for the experiment on day 0. The next day, animals were randomized and divided into different groups. Two treatment groups contained 7 animals each and one control group contained 10 animals. The first treatment group was given compound 2 (20 mg/kg i/p) from day 1-9. The second treatment group was treated with 5-fluorouracil (22 mg/kg, i.p) from day 1-9 and it served as positive control. The control group was similarly administered normal saline (0.2 ml, i.p.) from day 1-9. On day 9 & 13, tumor bearing thigh of each animal was shaved and longest and shortest diameters of the tumor were measured with the help of vernier caliper. Tumor weight of each animal was calculated using the following formula. Tumor weight (mg) = (Length(mm) × ([width(mm)])^2)/(2) [formula]
The percent tumor growth inhibition was calculated on day 13 by comparing the average values of treated groups with that of control group. Tumor growth in saline treated control animals was taken to be 100%. Table 6. In-vivo anticancer activity of 2 against Ehrlich ascites carcinoma (solid)

[8] = test system: various human cancer cell lines; assay: Cytotoxicity against various human cancer cell lines (summary statement); type: cell-based; details: read-out: cytotoxicity against various human cancer cell lines, IC50
Experimental: The benzyl compounds were evaluated by Sulforhodamine B Assay as per reported method [Skehan etal., J. Natl. Cancer Inst.1990, 82, 1107]. The human cancer cell lines procured from National Cancer Institute, Frederick, U. S. A. were used in present study. Cells were grown in tissue culture flasks in complete growth medium (RPMI-1640 medium with 2 mM glutamine, pH 7.4 supplemented with 10% fetal bovine serum, 100 µg/ml streptomycin and 100 units/ml penicillin) in a carbon dioxide incubator (37°C, 5% CO2, 90% RH). The cells at subconfluent stage were harvested from the flask by treatment with trypsin (0.05% in PBS (pH 7.4) containing 0.02% EDTA). Cells with viability of more than 98%, as determined by trypan blue exclusion, were used for determination of cytotoxicity. The cell suspension required concentration of cells was prepared in complete growth medium. Stock solution of 2x10^-2 M of compounds were prepared in DMSO and further dilution was carried out complete growth medium containing 50µg/ml of gentamycin to obtained working test solution of required concentration. In vitro cytotoxicity against various human cancer cell lines was determined using 96-well cell culture plates. […] Cell growth was measured by staining with sulforhodamine B dye. […] The optical density (OD) was recorded on ELISA reader at 540nm. […]

Structure (SMILES): COc1cc(C2c3c(cc(OC)c(OC)c3OC)C(=O)C2Cc2ccc3c(c2)OCO3)cc(OC)c1OC (stereo not shown) [Compound 2, 2-(3",4"-methylenedioxybenzyl)-3-(3',4',5'-trimethoxyphenyl)-4,5,6-trimethoxy-indan-1-one]
- IC50 [1]: 2000 nM
- IC50 [2]: 3000 nM
- IC50 [3]: 3000 nM
- IC50 [4]: < 1000 nM
- IC50 [5]: 1000 nM
- IC50 [6]: 2080 nM
- Day 13 Av. Tumor weights ([7]; 20 mg/kg i/p day 1-9, Day 13): 1178.35 ± 32.72 mg
- %Tumor Growth Inhibition ([7]; 20 mg/kg i/p day 1-9, day 13): 42.77% and 42.771%
- Mortality ([7]; 20 mg/kg i/p day 1-9, dead/total animals): 0/7
- Day 13 Av. Body weights ([7]; 20 mg/kg i/p day 1-9, male Swiss mice, Day 13): 23.28 g
- Av. Body weights (g) of animals on days 1 ([7]; 20 mg/kg i/p day 1-9, male Swiss mice, day 1): 21.42 g
- better activity (in-vivo) over the parent compound 12 ([7]; solid tumour, 20mg/kg dose, relative to compound 12): 19.1%
- IC50 [8]: 1000 to 3000 nM

— patent EP3322687B1, “2-BENZYL-INDANONE COMPOUNDS AS ANTICANCER AGENT AND A PROCESS FOR PREPARATION THEREOF” (Council of Scientific and Industrial Research, priority 2015, dated 2017)
